The target of assay [1] is T1, EcGNPDA (glucosamine-6-phosphate deaminase from Escherichia coli) (Escherichia coli, UniProt P0A759).
T1 construct: gene nagB; full-length homohexamer; plasmid pTZ18RnagB in E. coli IBPC590 Δnag (stated for the mutant); encapsulated in silica sol-gel in T quaternary conformation (mutant F also in solution)
Put plainly: near-UV circular dichroism of enzyme-doped gels, […] nm. Type of assay: binding. The following applies: allosteric activator, 1 mM; ligand-free R-state gel; 100 mM Tris-HCl pH 7.7, 30°C.

The target of assay [2] is T2, EcGNPDA (glucosamine-6-phosphate deaminase from Escherichia coli) (Escherichia coli, UniProt P0A759, C118S/D165C/S206W/C228S/C239S).
T2 construct: gene nagB; full-length homohexamer; plasmid pTZ18RnagB in E. coli IBPC590 Δnag (stated for the mutant); encapsulated in silica sol-gel in T quaternary conformation (mutant F also in solution)
Put plainly: initial velocity fitted to MWC equation. Type of assay: biochemical. The following applies: mutant F, soluble enzyme; MWC R-state substrate dissociation constant (stronger state) from velocity data; cooperative; read-out: K R ^a. The text has this:
initial velocity fitted to MWC equation on […] (glucosamine-6-phosphate deaminase from Escherichia coli)

We go through two molecules from PMC4008608, “The Tertiary Origin of the Allosteric Activation of E. coli Glucosamine-6-Phosphate Deaminase Studied by Sol-Gel Nanoencapsulation of Its T Conformer” (PLoS ONE, 2014).

On to `CC(=O)N[C@H]1C(O)O[C@H](COP(=O)(O)O)[C@@H](O)[C@@H]1O` (some centres unmarked) [GlcNAc6P], for which the “near-UV circular dichroism of enzyme-doped gels, 274 nm” value in assay [1] is “Only the enzyme in the R state when in presence of the activator, displays”.

For `N[C@H]1C(O)O[C@H](COP(=O)(O)O)[C@@H](O)[C@@H]1O` (some centres unmarked) [GlcN6P], in assay [2], the Kd came out at 440 ± 10 µM.
